Values quoted from earlier work as cited in patent US20170056383A1, “TOPICAL HERPES PAIN TREATMENT AND COMPOSITION” (priority 2015, published 2017).

Test system: Herpes Simplex Virus lesions
Conditions: applied to the lesion

With `CCOC(=O)c1ccc(N)cc1` [benzocaine] as the compound, how does the active working time read?
The active working time was “about 15 minutes”.
